Experiments:
[1] = test system: S6K1 (Thr389) phosphorylation (mTORC1 activity) in FKBP12 knock-out 293T cells; test: Inhibition of S6K1 (Thr389) phosphorylation in FKBP12 knock-out 293T cells (ELISA); assay type: cell-based, human; details: for inhibition at 10 µM: Homo sapiens, HEK-293T, 10 μM (highest tested concentration); for selectivity for FKBP12 compared with RAD001 (in words): wild-type versus FKBP12 knock-out cells
From the text: Example Generation of FKBP 12 knock-out cells. A CRISPR/Cas9 system was used to deliver ribonucleoprotein complexes containing guide RNA sequences that target FKBP12 (ac[…], location 1369062; ccactactcac[…], location 1369181) in HEK293T cells using Lipofectamine CRISPRMAX transfection reagent (Invitrogen CMAX00008). Cell clones were screened by immunoblotting with anti-FKBP-specific antibody (Novus, NB300-508). Single cells that were deficient for FKBP12 protein were selected and cloned.
(§1) Treatment of wild-type (WT) and FKBP12 knock-out 293T cells with RAD001 (everolimus) and test compounds. WT and FKBP12 knock-out 293T cells were cultured in Dulbecco's modified Eagle's medium (Gibco #11971-025) supplemented with 10% fetal bovine serum (Gibco #26140-079). Cells were plated at a density of 15,000 cells per well in poly-D-Lysine coated 96-well plates (Corning, #354461) and were incubated at 37° C., 5% CO2 for 24 hours until they reached ˜80% confluence. Cells were treated with RAD001 or test compounds reconstituted in dimethyl sulfoxide (DMSO) using a 8-11-point dose range, from 0.001 pM to 10 μM. All treatments were performed in duplicates for 2 hours at 37° C. Cell culture media supplemented with blank dimethyl sulfoxide (DMSO) was used as a negative control for all compounds. Phosphorylated amounts of S6K1 (Thr389) were measured using an ELISA kit (Invitrogen 85-86052-11), following the manufacture's protocol.
(§2) S6K1 is an immediate downstream target of mTORC1 and therefore phosphorylation of S6K1 at Thr389 residue is used to measure mTORC1 activity (PMID: 16968213). Amounts of phosphorylated S6K1 (Thr389) were measured in WT and FKBP12 knock-out 293T cells treated with either RAD001 or Compound 44 (FIGS. 1A and 1B), and Compound 45 (FIGS. 1C and 1D).

[2] = In vitro microsomal metabolic stability, CD-1 mouse liver microsomes; assay type: in vitro ADME; details: for CLint scaled at 1 µM / microsomal CLint at 1 µM: CD-1, mouse, mouse liver microsomes, pH 7.2; for half-life at 1 µM: CD-1, pH 7.2, 0.5 mg/ml protein, NADPH; for half-life at 1 µM / Remaining (T = 60 min) / Remaining (T = NCF60 min): Mouse liver microsomes; for Remaining (T = 60 min): with NADPH; for Remaining (T = NCF60 min): without NADPH regenerating system; for Remaining (T = 60 min) / Remaining (T = NCF60 min): 60 min
Procedure: (§3) Buffers: PBK Buffer: 50 mM potassium phosphate buffer (PPB), pH 7.2, with 3.3 mM Magnesium Chloride.
(§4) TA Intermediate solution: Compound or control (3 μL) diluted from stock solution (10 mM) with 297 μL 90.0% methanol/water. (Conc: 100 μM; 1.0% DMSO, 89.1% MeOH).
(§5) Control cocktail intermediate solution: Each control (3 μL) was diluted with 291 μL 90.0% methanol/water.
(§6) Diluted TA intermediate stock solution and PC control stock were made by transferring 80 μL of 100 μM TA stock solution into new tubes and then adding 720 μL of 1.0% DMSO in 50 mM potassium phosphate buffer (conc. 10 μM; 1.0% DMSO, 8.91% MeOH).
(§7) Preparation of Liver microsomes working solution (1.25×)(final Conc.: 0.5 mg/mL).
(§8) Acetonitrile:methanol (9:1, v/v)(including 200 ng/mL tolbutamide and 200 ng/ml labetalol hydrochloride as internal standards).
(§9) Working solution: Intermediate solution (80 μL) was diluted with 720 μL 1.0% DMSO in 50 mM potassium phosphate buffer (Conc.: 10 μM; 1.0% DMSO, 8.91% MeOH)
(§10) Procedure: Stock solution was added to each of the time point plates. Microsomes solution (360 μL/well), TA/PC (45 μL/well), and NADPH (45 μL/well) min. (Conc: 1.0 μM, 0.10% DMSO, 0.891% MeOH) were added to the incubation plates. To the T60 and NCF60 plate, TA (15 ul/well) and Microsomes (120 ul) were added. To the blank plate, microsome (50 ul/well) with stop solution (150 ul/well) were added. At the end of each time point, 50 ul/well was aliquoted from the incubation plate. The sampling plates were shaken for approximately 10 min. on a shaker and the samples were centrifuged at 4000 rpm for 15 min. Supernatant (120 μL) was transferred for LC/MS/MS.Compounds from Table 3 were incubated at 37° C. with liver microsomes (pooled from multiple donors) at 1 μM in the presence of a NADPH regenerating system at 0.5 mg/ml microsomal protein. Positive controls included testosterone (3A4 substrate), propafenone (2D6) and diclofenac (2C9), which were incubated with microsomes in the presence of an NADPH regenerating system. At time points (0, 5, 10, 20, 30 and 60 minutes), samples were removed and immediately mixed with cold acetonitrile containing the internal standard (IS). Test compounds incubated with microsomes without the NADPH regenerating system for 60 min are also included. A single point for each test condition (n=1) was obtained, and samples were analyzed by LC/MS/MS. Disappearance of the test compound was assessed based on peak area ratios of analyte/IS (no standard curve).

[3] = In vitro microsomal metabolic stability, human liver microsomes; assay type: in vitro ADME; details: for Remaining (T = 60 min) / Remaining (T = NCF60 min) / half-life at 1 µM: Human liver microsomes; for Remaining (T = 60 min): with NADPH; for Remaining (T = NCF60 min): without NADPH regenerating system; for Remaining (T = 60 min) / Remaining (T = NCF60 min): 60 min; for CLint scaled at 1 µM / microsomal CLint at 1 µM: human, human liver microsomes; for CLint scaled at 1 µM / microsomal CLint at 1 µM / half-life at 1 µM: pH 7.2; for half-life at 1 µM: 0.5 mg/ml protein, NADPH
Procedure: as §3, §4, §5, §6, §7, §8, §9, §10

[4] = test system: S6K1 (Thr389) phosphorylation (mTORC1 activity) in wild-type (WT) 293T cells; test: Inhibition of S6K1 (Thr389) phosphorylation in wild-type 293T cells (ELISA); assay type: cell-based, human; details: for IC50: Homo sapiens, HEK-293T, 2 h, wild-type 293T cells, 2 hours treatment; for fold lower potency compared with RAD001 (by IC50) / extent of inhibition of S6K1 (Thr389) phosphorylation: wild-type cells; for extent of inhibition of S6K1 (Thr389) phosphorylation: with increasing concentrations
Procedure: as §1, §2

SMILES	inhibition of S6K1 (Thr389) phosphorylation in the absence of FKBP12 (in words) ([1]; FKBP12 knock-out cells)	fold less potent compared with RAD001 ([1]; FKBP12 knock-out cells, at similar level of inhibition) [fold]	inhibition at 10 µM ([1]; FKBP12 knock-out cells) [%]	selectivity for FKBP12 compared with RAD001 (in words) [1]	CLint scaled at 1 µM [2] [mL/min/kg]	microsomal CLint at 1 µM [2] [µL/min/mg]	half-life at 1 µM [2] [min]	Remaining (T = 60 min) [2] [%]	Remaining (T = NCF60 min) [2] [%]	Remaining (T = 60 min) [3] [%]	Remaining (T = NCF60 min) [3] [%]	CLint scaled at 1 µM [3] [mL/min/kg]	microsomal CLint at 1 µM [3] [µL/min/mg]	half-life at 1 µM [3] [min]	IC50 [4] [nM]	fold lower potency compared with RAD001 (by IC50) [4] [fold]	extent of inhibition of S6K1 (Thr389) phosphorylation [4]
COc1cccc(NC2C[C@@H]3CC[C@@H](C)[C@@](O)(O3)C(=O)C(=O)N3CCCCC3C(=O)O[C@H]([C@H](C)C[C@@H]3CC[C@@H](O)[C@H](OC)C3)CC[C@H](C)/C=C(\C)[C@@H](O)[C@@H](OC)C(=O)[C@H](C)C[C@H](C)/C=C/C=C/C=C/2C)c1 (stereo partly drawn) [Compound 44, (3S,6S,7E,9R,10R,12R,14S,15E,17E,19E,23S,26R,27R,34aS)-9,27-dihydroxy-3-((R)-1-((1S,3R,4R)-4-hydroxy-3-methoxycyclohexyl)propan-2-yl)-10-methoxy-21-((3-methoxyphenyl)amino)-6,8,12,14,20,26-hexamethyl-5,6,9,10,12,13,14,21,22,23,24,25,26,27,32,33,34,34a-octadecahydro-3H-23,27-epoxypyrido[2,1-c][1]oxa[4]azacyclohentriacontine-1,11,28,29(4H,31H)-tetraone]	did not inhibit S6K1 phosphorylation at any tested concentration lower than 10 μM	~100	~30	relatively more selective for FKBP12 compared to RAD001	162	41	33.8	31	96	7.50	99	71.7	79.6	17.4	11	~17	completely inhibit
CO[C@@H]1C[C@H](C[C@@H](C)[C@@H]2CC[C@H](C)/C=C(\C)[C@@H](O)[C@@H](OC)C(=O)[C@H](C)C[C@H](C)/C=C/C=C/C=C(\C)C(Nc3ccc(Cl)cc3)C[C@@H]3CC[C@@H](C)[C@@](O)(O3)C(=O)C(=O)N3CCCCC3C(=O)O2)CC[C@H]1O (stereo partly drawn) [Compound 48, (3S,6S,7E,9R,10R,12R,14S,15E,17E,19E,23S,26R,27R,34aS)-21-((4-chlorophenyl)amino)-9,27-dihydroxy-3-((R)-1-((1S,3R,4R)-4-hydroxy-3-methoxycyclohexyl)propan-2-yl)-10-methoxy-6,8,12,14,20,26-hexamethyl-5,6,9,10,12,13,14,21,22,23,24,25,26,27,32,33,34,34a-octadecahydro-3H-23,27-epoxypyrido[2,1-c][1]oxa[4]azacyclohentriacontine-1,11,28,29(4H,31H)-tetraone]	did not inhibit S6K1 (Thr389)phosphorylation at any tested concentrations			relatively more selective to FKBP12 compared with RAD001		< 9.6	> 145	101	150	32	107	37.8	42.1	33	9.8	30	near complete inhibition
CO[C@@H]1C[C@H](C[C@@H](C)[C@@H]2CC[C@H](C)/C=C(\C)[C@@H](O)[C@@H](OC)C(=O)[C@H](C)C[C@H](C)/C=C/C=C/C=C(\C)C(Nc3ccc(C)cc3)C[C@@H]3CC[C@@H](C)[C@@](O)(O3)C(=O)C(=O)N3CCCCC3C(=O)O2)CC[C@H]1O (stereo partly drawn) [Compound 49, (3S,6S,7E,9R,10R,12R,14S,15E,17E,19E,23S,26R,27R,34aS)-9,27-dihydroxy-3-((R)-1-((1S,3R,4R)-4-hydroxy-3-methoxycyclohexyl)propan-2-yl)-10-methoxy-6,8,12,14,20,26-hexamethyl-21-(p-tolylamino)-5,6,9,10,12,13,14,21,22,23,24,25,26,27,32,33,34,34a-octadecahydro-3H-23,27-epoxypyrido[2,1-c][1]oxa[4]azacyclohentriacontine-1,11,28,29(4H,31H)-tetraone]	did not inhibit S6K1 (Thr389)phosphorylation at any tested concentrations			relatively more selective to FKBP12 compared with RAD001	42.3	10.7	130	67	139	15	102	59.6	66.2	20.9	9.5	29	near complete inhibition
CO[C@@H]1C[C@H](C[C@@H](C)[C@@H]2CC[C@H](C)/C=C(\C)[C@@H](O)[C@@H](OC)C(=O)[C@H](C)C[C@H](C)/C=C/C=C/C=C(\C)C(Nc3cccc(C)c3)C[C@@H]3CC[C@@H](C)[C@@](O)(O3)C(=O)C(=O)N3CCCCC3C(=O)O2)CC[C@H]1O (stereo partly drawn) [Compound 50, (3S,6S,7E,9R,10R,12R,14S,15E,17E,19E,23S,26R,27R,34aS)-9,27-dihydroxy-3-((R)-1-((1S,3R,4R)-4-hydroxy-3-methoxycyclohexyl)propan-2-yl)-10-methoxy-6,8,12,14,20,26-hexamethyl-21-(m-tolylamino)-5,6,9,10,12,13,14,21,22,23,24,25,26,27,32,33,34,34a-octadecahydro-3H-23,27-epoxypyrido[2,1-c][1]oxa[4]azacyclohentriacontine-1,11,28,29(4H,31H)-tetraone]			12	selective to FKBP12		< 9.6	> 145	89	112	18	99	54.7	60.8	22.8	5.72	15	near complete inhibition

Source: patent US20240360153A1 (Regeneron Pharmaceuticals, Inc., priority 2023, published 2024)
